# Values quoted from earlier work, collected in US20130184316A1, “METHODS FOR DIAGNOSING AND TREATING CONCUSSIVE DISORDERS” (priority 2010, published 2013).
# Key:
# [1] = test system: patients with idiopathic cerebellar ataxia; conditions: literature (Sprenger et al.); cited from earlier work
# [2] = test system: patients with type-2 episodic ataxia (EA2); conditions: literature reports; cited from earlier work
Structure (SMILES),Gravity-dependent symptoms associated with ataxic episodes [1],Symptoms of EA2 (including downbeat nystagmus) [2]
"Nc1ccncc1N [3,4-DAP, 3,4-diamino pyridine]",effective in ameliorating some gravity-dependent symptoms,–
CC(=O)Nc1nnc(S(N)(=O)=O)s1 [acetazolamide],–,attenuated
